# Laboratory results from patent publication US20180180626A1, “A METHOD FOR DEVELOPMENT OF RECOMBINANT PROTEINS WITH FINGERPRINT LIKE SIMILARITY TO THE REFERENCE PRODUCT” (STC Biologics, Inc., priority 2014, published 2018).
# Legend:
# fucosyl transferase = assay: 2AB glycan analysis of trastuzumab biosimilar isolated from CHO cells treated with 2F-Peracetyl-Fucose (FTI); format: cell-based, Chinese Hamster
# Method: Chromatography by HPLC or UPLC is another powerful method to analyze recombinant proteins. For example, glycan species can he quantitated using a fluorescent 2AB labeling method. In this method, glycans are first removed from the protein by digestion with N-glycanase and then a fluorescent label is added to each glycan. The glycans can then be resolved using HILIC based chromatography and quantitated by measuring relative area under the curve. For oxidation quantitation an HIC based method can be used.
# To obtain a recipe for production of a biosimilar with a similar glycosylation pattern to the original Herceptin®, CHO cells engineered to express the recombinant protein with an amino acid sequence identical to trastuzumab were first grown in the growth media without any inhibitors to establish a baseline. The glycan Species were analyzed using 2AB glycan method. It was observed that Peak 2 (G0) and Peak 6 (G1), and Peak 7 (mannose-5 and G1′) modifications were lower for the biosimilar than their target profile.
# G0, G1 and G1′ modifications are non-fucosylated modifications and are controlled by a host protein called fucosyl transferase and the mannose-5 modification is controlled by the host protein known as α-mannosidase 1. Fucosyl transferase can be inhibited by a variety of fucosyltransferase inhibitors shown in FIG. 2, α-mannosidase 1 can be inhibited by kifunensine.
# Briefly to obtain trastuzumab with modifications in the target range, cells were placed in growth media and treated with 2F-Peracetyl-Fucose (FTI) on day 7 at different concentrations (20 μM. 10 μM, 5 μM, 1 μM, 0.1 μM) to identify optimal drug concentration. On day 12 cells were harvested and the trastuzumab biosimilar isolated. […] FTI concentrations used to reach target profile are cell specific so it is expected that different concentrations of the FTI or other modulators would be required when a starting cell line is different from the one described in this example.
# Different treatment methods such as Method 2 can be used to obtain target profile. For example, FTI can be added on a daily basis starting on day 5 (Table 3, Method 2) rather than on Day 7.
# α-mannosidase I = assay: 2AB glycan analysis of trastuzumab biosimilar isolated from CHO cells treated with kifunensine (KFI), with FTI; format: cell-based, Chinese Hamster; conditions: treated on Day 7; tested about 0.001 ng/ml-100 ng/ml
# Method: Chromatography by HPLC or UPLC is another powerful method to analyze recombinant proteins. For example, glycan species can he quantitated using a fluorescent 2AB labeling method. In this method, glycans are first removed from the protein by digestion with N-glycanase and then a fluorescent label is added to each glycan. The glycans can then be resolved using HILIC based chromatography and quantitated by measuring relative area under the curve. For oxidation quantitation an HIC based method can be used. To obtain a recipe for production of a biosimilar with a similar glycosylation pattern to the original Herceptin®, CHO cells engineered to express the recombinant protein with an amino acid sequence identical to trastuzumab were first grown in the growth media without any inhibitors to establish a baseline. The glycan Species were analyzed using 2AB glycan method. It was observed that Peak 2 (G0) and Peak 6 (G1), and Peak 7 (mannose-5 and G1′) modifications were lower for the biosimilar than their target profile. G0, G1 and G1′ modifications are non-fucosylated modifications and are controlled by a host protein called fucosyl transferase and the mannose-5 modification is controlled by the host protein known as α-mannosidase 1. Fucosyl transferase can be inhibited by a variety of fucosyltransferase inhibitors shown in FIG. 2, α-mannosidase 1 can be inhibited by kifunensine. […]
# [1] = Method 2 - […]-[…] FTI every day starting at day 5
smiles,measurement,setting,value
"CC(=O)OC1O[C@@H](C)[C@@H](OC(C)=O)[C@@H](OC(C)=O)[C@@H]1F (some centres unmarked) [FTI, 2F-Peracetyl-Fucose]","G0, G1 and G1′ levels versus target PTM range","fucosyl transferase; 10 μM FTI on day 7, harvest day 12",matched the target PTM range
same,"G0, G1 and G1′ levels versus target PTM range","fucosyl transferase; 20 μM FTI on day 7, harvest day 12","increase of G0, G1 and G1′ PTMs above that of target PTMs"
same,modifications versus target range,fucosyl transferase; FTI at concentrations lower than 8 μM,outside the target range
same,Glycan Species Peak 2-G0,fucosyl transferase; Method 1 - 10 μM FTI - Day 7,4%
same,Glycan Species Peak 3,fucosyl transferase; Method 1 - 10 μM FTI - Day 7,1.5%
same,Glycan Species Peak 4-G0F,fucosyl transferase; Method 1 - 10 μM FTI - Day 7,44%
same,Glycan Species Peak 5,fucosyl transferase; Method 1 - 10 μM FTI - Day 7,0.8%
same,Glycan Species Peak 6-G1,fucosyl transferase; Method 1 - 10 μM FTI - Day 7,1.8%
same,Glycan Species Peak 7- G1F/mannose 5,fucosyl transferase; Method 1 - 10 μM FTI - Day 7,1.2%
same,"Glycan Species Peak 8- (1,6)G1F",fucosyl transferase; Method 1 - 10 μM FTI - Day 7,26%
same,"Glycan Species Peak 9 (1,3)G1F",fucosyl transferase; Method 1 - 10 μM FTI - Day 7,11%
same,Glycan Species Peak 10 G2F,fucosyl transferase; Method 1 - 10 μM FTI - Day 7,6.5%
same,Glycan Species Peak 11,fucosyl transferase; Method 1 - 10 μM FTI - Day 7,0.2%
same,Glycan Species Peak 12,fucosyl transferase; Method 1 - 10 μM FTI - Day 7,0.25%
same,Glycan Species Peak 13,fucosyl transferase; Method 1 - 10 μM FTI - Day 7,0.2%
same,Glycan Species Peak 14,fucosyl transferase; Method 1 - 10 μM FTI - Day 7,0.2%
same,Glycan Species Peak 15,fucosyl transferase; Method 1 - 10 μM FTI - Day 7,0.2%
same,Glycan Species Peak 1,"fucosyl transferase; Method 1 - 10 μM FTI - Day 7, trastuzumab biosimilar, harvest day 12",1.5%
same,Glycan Species Peak 4-G0F,fucosyl transferase; [1],44%
same,"Glycan Species Peak 8- (1,6)G1F",fucosyl transferase; [1],26%
same,"Glycan Species Peak 9 (1,3)G1F",fucosyl transferase; [1],11%
same,Glycan Species Peak 10 G2F,fucosyl transferase; [1],6.5%
O=C1N[C@@H]2[C@@H](O)[C@@H](O)[C@H](O)[C@@H](CO)N2C1=O [kifunensine],ideal concentration for optimization of the mannose species,α-mannosidase I,1 to 10 ng/mL
